Reference: paper PMC9959589, “Use of a Longer Aglycon Moiety Bearing Sialyl α(2→3) Lactoside on the Glycopolymer for Lectin Evaluation” (Polymers, 2023)

Target: T1, Wheat germ agglutinin (WGA)
T1 construct: gene WGA1; commercial native lectin from wheat germ (J-Oil Mills)
Assay: intrinsic tryptophan fluorescence titration, Hill plot
Type: binding, Triticum aestivum
Settings: 0.65 μM WGA, 50 mM Tris-HCl, 1.25 M NaCl, 25 mM CaCl2, pH 7.5, 4 °C; excitation 295 nm, emission 348 nm (buffer as given for 10b, same procedure); read-out: K a / (×10^5 M^-1) (converted)
Description: intrinsic tryptophan fluorescence titration, Hill plot on Wheat germ agglutinin (WGA)

Kd: 31.2 µM
Structure (SMILES): C=CC(=O)NCCOCCOCCOCCOCCOCCOCCOCCOCCO[C@@H]1O[C@H](CO)[C@@H](O[C@@H]2O[C@H](CO)[C@H](O)[C@H](O[C@]3(C(=O)O)C[C@H](O)[C@@H](NC(C)=O)[C@H]([C@H](O)[C@H](O)CO)O3)[C@H]2O)[C@H](O)[C@H]1O [compound 9, 28-Oxo-3,6,9,12,15,18,21,24-octaoxa-27-azatriacont-29-en-1-yl (5-Acetamido-3,5-dideoxy-D̿ -glycero-α-D̿ -galacto-2-nonulopyranosyl)-(2→3)-O-(β-D̿ -galactopyranosyl)-(1→4)-β-D̿ -glucopyranoside]
